Non-standard residues stand in square brackets, D forms with d. No end group written: not given here. Cha = N[C@@H](CC1CCCCC1)C(=O)O
Assays:
Molm13 cells [1] = test: Viable cell number of Molm13 AML cells; format: cell-based; settings: 3 days
MCF7/siMCJ cells = test: Confocal microscopy for doxorubicin accumulation; format: cell-based, human; settings: oligomycin 5 μM with doxorubicin 3 μM, 4 h; vs doxorubicin alone
Method: Confocal microscopy for doxorubicin accumulation. MCF7/siMCJ cells were seeded on BD Biocoat coverslips (BD Biosciences, Bedford, Mass.) the day before the treatment. At 20 h, oligomycin (5 μM) or medium was added to the cell. After 3 h, doxorubicin (3 μM) was added and cells were further incubated for 4 h. Cells were washed with PBS and fixed in 3.7% paraformaldehyde. […] For nuclear staining, DAPI (Molecular Probes, Eugene, Oreg.) was used. Cells were visualized by confocal microscopy (Zeiss LSM 510 META Confocal Laser Scanning Imaging System, Carl Ziess Microimaging Inc, Thronwood, N.Y.). The term: MCF7/siMCJ and siMCJ/MCF7 is used interchangeably herein. Experiments were performed to determine whether reducing mitochondrial respiration in cancer cells restores the cells' sensitivity to chemotherapeutic agents. […] MCF7/siMCJ cells were treated with doxorubicin alone or doxorubicin and oligomycin (an inhibitor of Complex V/ATP synthase) at a concentration of 5 μM for 4 h. Doxorubicin intrinsic fluorescence in the cells was viewed by confocal microscopy. The DAPI dye was used as a nuclear maker.

MCF7 cells = test: Viable cell count of MCF7 cells (Trypan blue); format: cell-based, human; settings: 25 μM, 2 days
Excerpt: (§1) FIG. 15A provides results of Western blot analysis for MCJ in MCF7 cells and MCF7/ADR (ADR) cells. Actin was used as loading control. […] Viable cells were counted 2 days later.
(§2) Cell Culture. MCF7 and MCF7/ADR cells were a kind gift from Dr. Ken Cowan (National Cancer Institute, Bethesda, Md.). MCF7/siMCJ cells were generated by stable transfection with a plasmid expressing a shRNA for MCJ (siMCJ) as described in Hatle, K. M., et al., Mol Cell Biol 27, 2952-2966 (2007). All cells were maintained at 37 C, 5% CO2 in RPMI-1640 (Life technologies, Inc., Gaithersburg, Md.) containing 5% FBS.
(§3) Cell count. Cells were trypsinized, washed, and resuspended in medium. Number of viable cells was measured by counting using Trypan blue dye to exclude dead cells (visualized as blue).
(§4) Doxorubicin and peptides treatment in vitro. Doxorubicin (Sigma-Aldrich) was used at 3 μM final concentration. The three different peptides described in the examples (SEQ ID NO: 2, 18 or 6) were resuspended at 10 mM stock concentration in PBS. The peptides were used a different concentration as indicated for each example (1, 10, or 50 μM). Cells were plated the day prior the treatment (18-20 h prior to the treatment). For treatments with peptides only, peptides were added to the plates at the indicated concentrations, and after 2 or 3 days (as indicated for each example) cells were trypsinized, resuspended, and counted. For the treatment with doxorubicin and peptides, cells were pretreated with the corresponding peptide for 4 h prior to adding doxorubicin.
MCF7 cells and MCF7/ADR cells were incubated (using standard procedures) for two days in media alone or in media that included different concentrations of the TAT-N-MCS-MTS polypeptide having the amino acid sequence set forth as: […]

MCF7/ADR cells [2] = test: Viable cell count of MCF7/ADR cells (Trypan blue); format: cell-based, human
Method: as §1
FIG. 16A-B provides graphs showing response to MCJ agonists. […] Cells were harvested 2 days later and viable cells were counted. […] Mice were harvested at day 4. The size of a tumor over time was determined by caliper measurements, and is represented as a percentage relative to the initial size prior to the treatment. p<0.05 as determined by a paired t-test.
as §2, §3, §4
MCF7/ADR cells were incubated (using standard procedures) for three days in media alone or in media plus three different MCJ based polypeptides each at a concentration of 50 μM in media. The cells of set one were incubated in media and served as a control set. The cells of set two were incubated in media that included a 50 μM concentration of a MCJ polypeptide without a targeting agent polypeptide. The amino acid sequence of the N-MCJ polypeptide without a targeting agent polypeptide was […] (SEQ ID NO:2). The cells of set three were incubated in media that included a 50 μM concentration of a TAT-N-MCJ polypeptide. The amino acid sequence of the TAT-N-MCJ polypeptide was: […] (SEQ ID NO:18). […]

Molm13 cells [3] = test: Mitochondrial membrane potential by TMRE staining, flow cytometry; format: cell-based; settings: 22 h
Method: (§5) FIG. 17A-D provides graphs of results showing MCJ agonist inhibition of AML. FIG. 17A-B show results when Molm13 cells (10^4 cells) were incubated in the presence of medium, TAT-N-MCJ-mts peptide (TAT) (25 μM), MITO-N-MCJ peptide (25 μM), AC220 (2 nM) or the combination of the peptides with AC220. Numbers of viable cells was measured after 3 days. […] The percentage of live cells negative for TMRE (TMREneg) is shown. […] The percentage of live PY1^+ cells is shown.
(§6) Experiments were also performed to assess the effect of MCJ agonists on mitochondrial membrane potential by staining with the TMRE dye. Given the more modest effects observed for TAT-N-MCJ-mts (FIG. 17A-B), 50 μM of this peptide was used in the experiments. […] AML cells are sensitive to the levels of reactive oxygen species (ROS), which are primarily generated in mitochondria as a result of electron leakage from the ETC. It was previously shown that MCJ can interfere with the formation of ETC respiratory supercomplexes [Hatle, K., et al., (2013) Mol Cell boil 33:2302-2314] that are formed to facilitate electron transport between complexes and minimize electron leakage [see Acin-Perez, R. et al., (2008) Mol Cell 32:529-539 and Lapuente-Brun, E. et al., (2013) Science 340:1567-1570]. […] The effect of the MCJ agonists was already observed after 5 h of treatment. […]

MCF7/ADR cells [4] = test: Seahorse MitoStress assay, oxygen consumption rate (OCR); format: cell-based, human
Method: FIG. 14A-C provides graphs showing effect of MCJ agonist polypeptides on OCR and respiratory capacity of cells. […] Cells pretreated with medium alone (medium), TAT-N-MCJ-mts peptide (TAT peptide) (50 μM) (FIG. 14A) or MITO-N-MCJ peptide (Mito peptide) (25 μM) (FIG. 14B) for the last 9 h prior to the MitoStress assay as described elsewhere herein. Standard flow chart for the treatments as recommended by the manufacturer (Seahorse Bioscience, Billerica, Mass.) was used: oligomycin (O), FCCP (F) and rotenone and antimycin (R+A). […] Oligomycin was replaced by vehicle (buffer) or MITO-N-MCJ peptide.
Human breast cancer cell lines MCF7 cells with siRNA-mediated knockdown of MCJ (MCF7/siMCJ cells) have increased Complex I activity. Experiments were performed to examine the effect of MCJ on mitochondrial respiration using the Seahorse X24 analyzer and the MitoStress assay (used in examples herein according to manufacturer's protocols) that measures mitochondrial oxygen consumption rate (OCR), a well-accepted proxy for mitochondrial respiration (Seahorse Bioscience, North Billerica, Mass.). […] In addition, maximum respiratory capacity (determined after addition of the mitochondrial uncoupler FCCP) was also drastically higher in MCF7/siMCJ cells (FIG. 12A). Moreover, Seahorse MitoStress analysis of OCR in primary mammary tumor cells from MMTV-Py mice [Guy, C.
The agonist polypeptides were tested to determine whether they would restore particular MCJ functions and the effect of the agonist polypeptides in mitochondrial respiration was examined. […] OCR was determined by the Seahorse analyzer in MCF7/ADR cells and MCF7/ADR cells that were pretreated with the TAT-N-MCJ-mts peptide for 9 h.
Assays were performed to examine the effect of MITO-N-MCJ peptide on mitochondrial respiration when added directly on cells ongoing Seahorse mito-stress analysis. In this case, OCR was first measured at the basal level and then either vehicle (Seahorse buffer) or the MITO-N-MCJ peptide was added in one of the ports from Seahorse. […]

Molm13 cells [5] = test: Mitochondrial ROS (mROS) by PY1 staining, flow cytometry; format: cell-based; settings: 22 h
Method: as §5, §6

MCF7/ADR cells [6] = test: Bright field microscopy of MCF7/ADR cells; format: cell-based, human; settings: 50 μM, two days; relative to medium only
Method: FIG. 3 provides photomicrographic images of MCF7/ADR cells that were incubated for two days in column (1) media alone; column (2) media that included a 50 μM concentration of an N-MCJ polypeptide (SEQ ID NO:2); column (3) media that included a 50 μM concentration of the TAT-N-MCJ polypeptide (SEQ ID NO:18); and column (4) media that included a 50 μM concentration of the TAT-N-MCJ-MTS polypeptide (SEQ ID NO:6).
Bright Field Microscopy. Live cells were imaged at an inverted bright field microscope (Leica Microsystems). 400× magnification was used.

[7] = 25 μM in combination with AC220 2 nM

With `CC(C)(C)c1cc(NC(=O)Nc2ccc(-c3cn4c(n3)sc3cc(OCCN5CCOCC5)ccc34)cc2)no1` [AC220, reference compound] the “viability (number of viable cells)” value (Molm13 cells [1]; AC220 2 nM) was “effective at inducing Molm13 cell death”.
`CC[C@H]1/C=C/C=C/C[C@@H](C)[C@H](O)[C@@](C)(O)C(=O)[C@@H](C)[C@H](O)[C@@H](C)C(=O)[C@@H](C)[C@H](O)[C@@H](C)/C=C/C(=O)O[C@@H]2[C@H](C)[C@H](CC1)O[C@]1(CC[C@H](C)[C@H](C[C@@H](C)O)O1)[C@H]2C` [oligomycin] was tested, and the “doxorubicin accumulation (intrinsic fluorescence, nucleus)” value (MCF7/siMCJ cells) was “doxorubicin accumulation (in the nucleus) only in MCF7/siMCJ cells treated with doxorubicin and oligomycin”.
“FxRFxKFxRFxKMAARGVIAPVGESLRYAEYL ([Cha]R[Cha]K[Cha]R[Cha]KMAARGVIAPVGESLRYAEYL) [MITO-N-MCJ, Fx is cyclohexylalanine]” was tested, and the “effect on viable cells” value (MCF7 cells) was “neither of the two MCJ agonists had an effect on MCF7 cells”, the “expansion of cells (viable cells)” value (MCF7/ADR cells [2]; 25 μM, peptide by itself, 2 days) was “drastic effect in limiting the expansion of these resistant cells” and the “efficacy relative to the TAT-N-MCJ peptide” value (MCF7/ADR cells [2]; MITO-N-MCJ greater than TAT peptide) was 2-3 times. For the same compound, the “mitochondrial membrane potential (TMRE negative live cells)” value (Molm13 cells [3]; [7]) was “the most remarkable effect”, the “mitochondrial membrane potential (TMRE negative live cells)” value (Molm13 cells [3]; 25 μM) was “caused a loss of mitochondrial membrane potential (TMRE negative cells) in a fraction of Molm13 cells” and the “effect on OCR” value (MCF7/ADR cells [4]; 25 μM, pretreated 9 h, compared with TAT-N-MCJ-mts) was “even more pronounced”. For the same compound, the “mitochondrial respiration (OCR)” value (MCF7/ADR cells [4]; peptide added directly during the assay, OCR measured during 180 min, vs vehicle) was “marked reduction of mitochondrial respiration”, the “maximum respiratory capacity (after FCCP)” value (MCF7/ADR cells [4]; peptide added directly during the assay, vs vehicle only) was “severely compromised” and the “viability (number of viable cells)” value (Molm13 cells [1]; peptide 25 μM alone) was “profound effect on Molm13 cells, leading to substantial cell death”. The “cells refractory to AC220 (number of viable cells)” value (Molm13 cells [1]; peptide 25 μM in combination with AC220 2 nM) was “effectively eliminated this resistant group”, the “production of mROS (live PY1+ cells)” value (Molm13 cells [5]; [7]) was “clearly synergized with AC220 to cause a massive production of mROS” and the “production of mROS (live PY1+ cells)” value (Molm13 cells [5]; 25 μM) was “could induce the production of mROS”.
With “MAARGVIAPVGESLRYAEYL (listed as Homo sapiens) [N-MCJ]” the “proliferation / cells attached to the culture plate (photomicrographs)” value (MCF7/ADR cells [6]) was “did not affect proliferation of the cells”.
For “YGKKRRQRRGMAARGVIAPVGESLRYAEYL [TAT-N-MCJ]”, the “expansion of cells (viable cells)” value (MCF7/ADR cells [2]; control peptide lacking the mts) was “had no effect” and the “proliferation / cells attached to the culture plate (photomicrographs)” value (MCF7/ADR cells [6]) was “did not affect proliferation of the cells”.

Source: patent US10350262B2, “MCJ agonists and uses therefor” (priority 2015, dated 2019)
